Results from patent US20050004126A1 (priority 2001, published 2005).
Like-named read-outs stand apart in the source and are kept apart here.

Experiments:
[1] = target: MMP-13CD (catalytic domain of collagenase 3) (Homo sapiens, UniProt P45452); assay: Thiopeptolide hydrolysis assay, MMP-13;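 also: inhibition of enzymatic thiopeptolide substrate cleavage (100 µM) in pH 6.0 MES buffer with CaCl2 and DTNB, comparing hydrolysis with versus without inhibitor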
Experimental: (§1) They measure the amount by which a test compound reduces the hydrolysis of a thiopeptolide substrate caused by a matrix metalloproteinase enzyme.
(§2) Thiopeptolide substrates show virtually no decomposition or hydrolysis in the absence of a matrix metalloproteinase enzyme. A typical thiopeptolide substrate commonly utilized for assays is Ac-Pro-Leu-Gly-thioester-Leu-Leu-Gly-OEt. A 100 μL assay mixture will contain 50 mM of 2-morpholinoethane sulfonic acid monohydrate (MES, pH 6.0) 10 mM CaCl2, 100 μM thiopeptolide substrate, and 1 mM 5,5′-dithio-bis-(2-nitro-benzoic acid) (DTNB). […] Assays are carried out with and without matrix metalloproteinase inhibitor compounds, and the amount of hydrolysis is compared for a determination of inhibitory activity of the test compounds.

[2] = target: T1, MMP-1FL (full-length interstitial collagenase) (Homo sapiens, UniProt P03956); assay: Thiopeptolide hydrolysis assay, MMP-1; format: biochemical; conditions: read-out: MMP01 IC50
T1 sequence (P03956 100-469): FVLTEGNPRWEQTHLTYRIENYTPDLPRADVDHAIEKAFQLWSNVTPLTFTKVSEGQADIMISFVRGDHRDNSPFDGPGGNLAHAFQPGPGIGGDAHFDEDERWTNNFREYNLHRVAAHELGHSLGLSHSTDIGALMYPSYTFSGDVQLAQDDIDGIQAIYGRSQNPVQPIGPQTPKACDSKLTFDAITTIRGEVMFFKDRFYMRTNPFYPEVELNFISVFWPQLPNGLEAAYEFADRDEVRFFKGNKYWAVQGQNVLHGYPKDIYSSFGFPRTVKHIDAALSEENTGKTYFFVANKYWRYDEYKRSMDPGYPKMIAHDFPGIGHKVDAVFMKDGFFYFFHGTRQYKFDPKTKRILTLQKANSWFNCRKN

[3] = target: MMP-3CD (catalytic domain of stromelysin) (Homo sapiens, UniProt P08254); assay: Thiopeptolide hydrolysis assay, MMP-3; format: biochemical;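 also: inhibition of thiopeptolide substrate (100 µM) cleavage by the MMP-3 catalytic domain, detected with DTNB at pH 6.0 with CaCl2, hydrolysis compared against runs lacking inhibitor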
MMP-3CD (catalytic domain of stromelysin), sequence (P08254 100-272 limits assumed): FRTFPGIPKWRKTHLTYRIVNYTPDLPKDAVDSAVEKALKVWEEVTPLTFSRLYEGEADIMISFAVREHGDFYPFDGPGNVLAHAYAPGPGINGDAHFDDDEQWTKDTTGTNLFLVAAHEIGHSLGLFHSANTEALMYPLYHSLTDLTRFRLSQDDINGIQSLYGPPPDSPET
Experimental: as §1, §2

Row | Structure (SMILES) | IC50 ([1]; MMP13 IC50 (nM), Table II) [nM] | IC50 ([2]; Table II) [µM] | IC50 ([3]; Table II, read-out: MMP03 IC50) [nM] | IC50 ([1]; MMP13 IC50 (μM), Table 1b) [nM] | IC50 ([2]; Table 1b) [µM] | IC50 ([3]; Table 1b, read-out: MMP03 IC50) [nM] | IC50 ([3]; MMP03 IC50 (nM), Table II) [nM]
1 | COc1ccc(CNC(=O)c2ccc(OC)c(C(=O)NCc3ccc(OC)cc3)c2)cc1 | 280 | > 100 | > 100000 | – | – | – | –
2 | COC(=O)COc1ccc(C(=O)OCc2ccccc2)cc1C(=O)OCc1ccccc1 | 9250 | > 100 | > 100000 | – | – | – | –
3 | Cc1c(=O)n(Cc2ccc(C(=O)O)cc2)c(=O)n2cc(C(=O)NCc3ccc(F)cc3)sc12 | – | – | – | 2.2 | > 100 | 68000 | –
4 | COC(=O)c1ccc(CNC(=O)c2cccc(C(=O)NCc3cccc(OC)c3)c2)cc1 | 255 | > 100 | 64000 | – | – | – | –
5 | COc1cccc(CNC(=O)c2cccc(C(=O)NCc3ccc(C(=O)O)cc3)c2)c1 | 77 | > 100 | > 100000 | – | – | – | –
6 | Cc1c(=O)n(Cc2ccccc2)c(=O)n2cc(C(=O)NCc3ccc(C(F)(F)F)cc3)sc12 | – | – | – | 2210 | > 30 | > 100000 | –
7 | Cc1c(=O)n(Cc2ccccc2)c(=O)n2cc(C(=O)NCc3cccc(F)c3)sc12 | – | – | – | 120 | > 30 | > 30000 | –
8 | Cc1c(=O)n(Cc2ccccc2)c(=O)n2cc(C(=O)NCc3ccc(Cl)cc3)sc12 | – | – | – | 86.9 | > 30 | 23000 | –
9 | Cc1c(=O)n(Cc2ccccc2)c(=O)n2cc(C(=O)NCc3ccc(OC(F)(F)F)cc3)sc12 | – | – | – | 815 | > 30 | > 100000 | –
10 | COc1ccc(CNC(=O)c2cccc(C(=O)NCc3ccc4c(c3)OCO4)c2)cc1 | 1650 | > 100 | – | – | – | – | > 100000
11 | O=C(NCc1ccccc1)c1cccc(C(=O)NCc2ccc3c(c2)OCO3)c1 | 1900 | > 100 | > 100000 | – | – | – | –
12 | O=C(NCc1ccc2c(c1)OCO2)c1cccc(C(=O)NCc2ccco2)c1 | 3400 | > 100 | > 100000 | – | – | – | –
13 | COc1cccc(CNC(=O)c2cccc(C(=O)OCc3ccc(C(=O)O)cc3)c2)c1 | 44 | > 100 | > 100000 | – | – | – | –
14 | COc1cccc(CNC(=O)c2cccc(C(=O)NCc3cccc(N)c3)c2)c1 | 935 | > 100 | > 100000 | – | – | – | –
15 | COc1cccc(CNC(=O)c2cccc(C(=O)NCc3ccc(C)cc3)c2)c1 | 385 | > 100 | 76000 | – | – | – | –
16 | COc1cccc(CNC(=O)c2cccc(C(=O)NCc3ccc([N+](=O)[O-])cc3)c2)c1 | 1140 | > 100 | > 100000 | – | – | – | –
17 | COc1cccc(CNC(=O)c2cccc(C(=O)NCc3cccnc3)c2)c1 | 7930 | > 100 | > 100000 | – | – | – | –
18 | COc1cccc(CNC(=O)c2cccc(C(=O)NCc3ccncc3)c2)c1 | 1400 | > 100 | > 100000 | – | – | – | –
19 | COc1cccc(CNC(=O)c2cccc(C(=O)NCc3ccc(Cl)c(Cl)c3)c2)c1 | 555 | > 100 | 68000 | – | – | – | –
20 | COc1cccc(CNC(=O)c2cccc(C(=O)NCc3ccc(Cl)cc3)c2)c1 | 503 | > 100 | > 100000 | – | – | – | –
21 | COc1ccc(CNC(=O)c2cccc(C(=O)NCc3cccc(OC)c3)c2)cc1 | 415 | > 100 | 40000 | – | – | – | –

Row | Structure (SMILES) | IC50 ([1]; MMP13 IC50 (nM), Table II) [nM] | IC50 ([2]; Table II) [µM] | IC50 ([3]; Table II, read-out: MMP03 IC50) [nM] | IC50 ([1]; MMP13 IC50 (μM), Table 1b) [nM] | IC50 ([2]; Table 1b) [µM] | IC50 ([3]; Table 1b, read-out: MMP03 IC50) [nM] | IC50 ([3]; MMP03 IC50 (nM), Table II) [nM]
22 | O=C(NCc1cccnc1)c1cccc(C(=O)NCc2ccc3c(c2)OCO3)c1 | 1500 | > 100 | > 100000 | – | – | – | –
23 | CCOc1ccc(C(=O)NCc2ccc3c(c2)OCO3)cc1C(=O)NCc1ccc2c(c1)OCO2 | 493 | 51 | 20000 | – | – | – | –
24 | CCCOc1ccc(C(=O)NCc2ccc3c(c2)OCO3)cc1C(=O)NCc1ccc2c(c1)OCO2 | 1450 | > 100 | 27000 | – | – | – | –
25 | COc1ccc(C(=O)NCc2ccc3nsnc3c2)cc1C(=O)NCc1ccc2nsnc2c1 | 155 | 30 | 21000 | – | – | – | –
26 | O=C(O)CN(Cc1ccccc1)C(=O)c1cccc(C(=O)NCc2ccc3c(c2)OCO3)c1 | 915 | > 100 | > 100000 | – | – | – | –
27 | CC(=O)c1ccc(C(=O)OCc2ccccc2)cc1C(=O)OCc1ccccc1 [4-Acetyl-isophthalic acid dibenzyl ester] | 8200 | > 100 | > 100000 | – | – | – | –
28 | COc1cccc(CNC(=O)c2ccc(OC)c(C(=O)NCc3cccc(OC)c3)c2)c1 [4-Methoxy-N,N′-bis-(3-methoxy-benzyl)-isophthalamide] | 180 | > 100 | > 100000 | – | – | – | –
29 | COc1ccc(C(=O)NCc2ccc(C)cc2)cc1C(=O)NCc1ccc(C)cc1 [4-Methoxy-N,N′-bis-(4-methyl-benzyl)-isophthalamide] | 7250 | > 100 | > 100000 | – | – | – | –
30 | COc1ccc(C(=O)OCc2ccccc2)cc1C(=O)OCc1ccccc1 [4-Methoxy-isophthalic acid dibenzyl ester] | 900 | > 100 | > 100000 | – | – | – | –
31 | COc1ccc(C(=O)OCc2ccncc2)cc1C(=O)OCc1ccncc1 [4-Methoxy-isophthalic acid dipyridin-4-ylmethyl ester] | 255 | > 100 | > 100000 | – | – | – | –
32 | Nc1cc(C(=O)OCc2ccccc2)cc(C(=O)OCc2ccccc2)c1 [5-Amino-isophthalic acid dibenzyl ester] | 1100 | > 100 | 73000 | – | – | – | –
33 | COc1ccc(CNC(=O)c2cn3c(=O)n(Cc4ccc(Cl)c(Cl)c4)c(=O)cc3s2)cc1 [6-(3,4-Dichloro-benzyl)-5,7-dioxo-6,7-dihydro-5H-thiazolo[3,2-c]pyrimidine-2-carboxylic acid 4-methoxy-benzylamide] | – | – | – | 84 | > 100 | > 100000 | –
34 | O=C(OCc1cccc(F)c1)c1cccc(C(=O)OCc2cccc(F)c2)c1 [Isophthalic acid bis-(3-fluoro-benzyl) ester] | 7830 | > 100 | > 30000 | – | – | – | –
35 | COc1cccc(COC(=O)c2cccc(C(=O)OCc3cccc(OC)c3)c2)c1 [Isophthalic acid bis-(3-methoxy-benzyl) ester] | 1150 | > 100 | > 100000 | – | – | – | –
36 | O=C(OCc1ccc(F)cc1)c1cccc(C(=O)OCc2ccc(F)cc2)c1 [Isophthalic acid bis-(4-fluoro-benzyl) ester] | 2330 | > 100 | > 100000 | – | – | – | –
37 | COc1ccc(COC(=O)c2cccc(C(=O)OCc3ccc(OC)cc3)c2)cc1 [Isophthalic acid bis-(4-methoxy-benzyl) ester] | 1080 | > 100 | 51000 | – | – | – | –
38 | O=C(OCc1ccccc1)c1cccc(C(=O)OCc2ccccc2)c1 [Isophthalic acid dibenzyl ester] | 2300 | > 100 | > 30000 | – | – | – | –
39 | COc1ccc(C(=O)NCc2ccc3c(c2)OCO3)cc1C(=O)NCc1ccc2c(c1)OCO2 [N,N′-Bis-1,3-benzodioxol-5-ylmethyl-4-methoxy-isophthalamide] | 185 | > 100 | 50000 | – | – | – | –
40 | O=C(NCc1cccc(Cl)c1)c1cccc(C(=O)NCc2cccc(Cl)c2)c1 [N,N′-Bis-(3-chloro-benzyl)-isophthalamide] | 2300 | > 100 | 20000 | – | – | – | –
41 | O=C(NCc1cccc(F)c1)c1cccc(C(=O)NCc2cccc(F)c2)c1 [N,N′-Bis-(3-fluoro-benzyl)-isophthalamide] | 5650 | > 100 | > 100000 | – | – | – | –
42 | COc1cccc(CNC(=O)c2cccc(C(=O)NCc3cccc(OC)c3)c2)c1 [N,N′-Bis-(3-methoxy-benzyl)-isophthalamide] | 1350 | > 100 | > 100000 | – | – | – | –
